Experiments:
JAK1 (h) = JAK1 (h) (Homo sapiens (Human), UniProt P23458); experiment: JAK1 kinase assay (33P-ATP filter binding, Millipore); format: biochemical
Protocol: Kinase assays can be performed by measurement of incorporation of γ-^33P ATP into immobilized myelin basic protein (MBP). High binding white 384 well plates (Greiner) are coated with MBP (Sigma #M−1891) by incubation of 60 μL/well of 20 μg/mL MBP in Tris-buffered saline (TBS; 50 mM Tris pH 8.0, 138 mM NaCl, 2.7 mM KCl) for 24 h at 4° C. Plates are washed 3× with 100 μL TBS. Kinase reactions are carried out in a total volume of 34 μL in kinase buffer (5 mM Hepes pH 7.6, 15 mM NaCl, 0.01% bovine gamma globulin (Sigma #I-5506), 10 mM MgCl2, 1 mM DTT, 0.02% TritonX-100). Compound dilutions are performed in DMSO and added to assay wells to a final DMSO concentration of 1%. Each data point is measured in duplicate, and at least two duplicate assays are performed for each individual compound determination. Enzyme is added to final concentrations of 10 nM or 20 nM, for example. A mixture of unlabeled ATP and γ-^33P ATP is added to start the reaction (2×10^6 cpm of γ-^33P ATP per well (3000 Ci/mmole) and 10 μM unlabeled ATP, typically. The reactions are carried out for 1 h at room temperature with shaking. Plates are washed 7× with TBS, followed by the addition of 50 μL/well scintillation fluid (Wallac). Plates are read using a Wallac Trilux counter. This is only one format of such assays; various other formats are possible, as known to one skilled in the art.
The above assay procedure can be used to determine the IC50 for inhibition and/or the inhibition constant, Ki. The IC50 is defined as the concentration of compound required to reduce the enzyme activity by 50% under the condition of the assay. The IC50 value is estimated by preparing a 10 point curve using a 1/2 log dilution series (for example, a typical curve may be prepared using the following compound concentrations: 3 μM, 1 μM, 0.3 μM, 0.1 μM, 0.03 μM, 0.01 μM, 0.003 μM, 0.001 μM, 0.0003 μM and 0 μM).
The kinase assays described herein were performed at Millipore UK Ltd, Dundee Technology Park, Dundee DD2 1SW, UK.

[1] = Pharmacokinetics after intravenous and oral administration in rats; format: in vivo; details: for Clearance (CL) after iv dosing / AUC(0-t) / half-life / Vd: dose 1 mg/kg (Ex. 27: 0.72 mg/kg), iv dosing; for F: oral bioavailability; for AUC(0-t) / half-life / Vd: rat, plasma; for Vd: read-out: Vss
Protocol: The LC/MS/MS system used in the analysis consists of an Agilent 1200 Series vacuum degasser, binary pump, well-plate autosampler, thermostatted column compartment, the Agilent G6430 Triple Quadrupole Mass Spectrometer with an electrosprayionization (ESI) source. Quantitative analysis was carried out using MRM mode. The parameters for MRM transitions are in the Table A.
An Agilent XDB-C18, 2.1×30 mm, 3.5 μM column was used for the analysis. 5 μL of the samples were injected. Analysis condition: The mobile phase was 0.1% formic acid in water (A) and 0.1% formic acid in methanol (B). The flow rate was 0.4 mL/min. And the gradient of Mobile phase was in the Table B.
Alternatively, an Agilent 6330 series LC/MS/MS spectrometer equipped with G1312A binary pumps, a G1367A autosampler and a G1314C UV detector were used in the analysis. An ESI source was used on the LC/MS/MS spectrometer. The analysis was done in positive ion mode as appropriate and the MRM transition for each analyte was optimized using standard solution. A Capcell MP-C18 100×4.6 mm I.D., […] column (Phenomenex, Torrance, Calif., USA) was used during the analysis. The mobile phase was 5 mM ammonia acetate, 0.1% MeOH in water (A): 5 mM ammonia acetate, 0.1% MeOH in acetonitrile (B) (70:30, v/v). The flow rate was 0.6 mL/min. Column was maintained at ambient temperature. 20 μL of the samples were injected.
The compounds disclosed herein are assessed in pharmacokinetic studies in mice, rats, dogs or monkeys. The compounds are administered as a water solution, 2% HPMC+1% TWEEN®80 in water solution, 5% DMSO+5% solution in saline, 4% MC suspension or capsule. For the intravenous administration, the animals are generally given at 1 or 2 mg/kg dose. For the oral (p.o.) dosing, mice and rats are generally given 5 or 10 mg/kg dose, and dogs and monkeys are generally given 10 mg/kg dose. The blood samples (0.3 mL) are drawn at 0.25, 0.5, 1.0, 2.0, 3.0, 4.0, 6.0, 8.0, 12 and 24 h time points or 0.083, 0.25, 0.5, 1.0, 2.0, 4.0, 6.0, 8.0 and 24 h time points and centrifuged at 3,000 or 4000 rpm for 2 to 10 min. The plasma solutions are collected, and stored at −20° C. or −70° C. until analyzed by LC/MS/MS as described above.

[2] = Compound stability in rat liver microsomes; format: in vitro ADME; details: for half-life at 5 μM: compound 5 μM, NADPH 1.0 mM, 37° C.; for CLint scaled at 5 μM: in vivo CLint extrapolated
Protocol: (§1) Human or rat liver microsomes incubations were conducted in duplicate in polypropylene tubes. The typical incubation mixtures consisted of human or rat liver microsomes (0.5 mg protein/mL), compounds of interest (5 μM) and NADPH (1.0 mM) in a total volume of 200 μL potassium phosphate buffer (PBS, 100 mM, pH 7.4). Compounds were dissolved in DMSO and diluted with PBS such that the final concentration of DMSO was 0.05%. The enzymatic reactions were commenced with the addition of protein after a 3-min preincubation and incubated in a water bath open to the air at 37° C. Reactions were terminated at various time points (0, 5, 10, 15, 30, 60 min) by adding equal volume of ice-cold acetonitrile. The samples were stored at −80° C. until LC/MS/MS assays.
(§2) The concentrations of compounds in the incubation mixtures of human or rat liver microsomes were determined by a LC/MS/MS method. The ranges of the linearity in the concentration range were determined for each tested compounds.
(§3) A parallel incubation was performed using denatured microsomes as the negative control, and reactions were terminated at various time points (0, 15, 60 min) after incubation at 37° C.
(§4) Dextromethorphan (70 μM) was selected as the positive control, and reactions were terminated at various time points (0, 5, 10, 15, 30, 60 min) after incubation at 37° C. Both positive and negative control samples were included in each assay to ensure the integrity of the microsomal incubation system.
(§5) The concentrations of compounds in human or rat liver microsome incubations were plotted as a percentage of the relevant zero time point control for each reaction. The in vivo CLint were extrapolated (ref.: Naritomi, Y.; Terashita, S.; Kimura, S.; Suzuki, A.; Kagayama, A.; and Sugiyama, Y.; Prediction of human hepatic clearance from in vivo animal experiments and in vitro metabolic studies with liver microsomes from animals and humans. Drug Metab. Dispos., 2001, 29: 1316-1324).

[3] = Compound stability in human liver microsomes; format: in vitro ADME; details: for half-life at 5 μM: compound 5 μM, NADPH 1.0 mM, 37° C.; for CLint scaled at 5 μM: in vivo CLint extrapolated
Protocol: as §1, §2, §3, §4, §5

[4] = pH 7.4, Rat liver microsomes 0.5 mg protein/mL
[5] = pH 7.4, Human liver microsomes 0.5 mg protein/mL
[6] = rat, liver microsomes, pH 7.4, Rat liver microsomes 0.5 mg protein/mL
[7] = rat, liver microsomes, pH 7.4, Rat liver microsomes
[8] = human, liver microsomes, pH 7.4, Human liver microsomes 0.5 mg protein/mL
[9] = human, liver microsomes, pH 7.4, Human liver microsomes

JAK1 (h), sequence (P23458 whole entry): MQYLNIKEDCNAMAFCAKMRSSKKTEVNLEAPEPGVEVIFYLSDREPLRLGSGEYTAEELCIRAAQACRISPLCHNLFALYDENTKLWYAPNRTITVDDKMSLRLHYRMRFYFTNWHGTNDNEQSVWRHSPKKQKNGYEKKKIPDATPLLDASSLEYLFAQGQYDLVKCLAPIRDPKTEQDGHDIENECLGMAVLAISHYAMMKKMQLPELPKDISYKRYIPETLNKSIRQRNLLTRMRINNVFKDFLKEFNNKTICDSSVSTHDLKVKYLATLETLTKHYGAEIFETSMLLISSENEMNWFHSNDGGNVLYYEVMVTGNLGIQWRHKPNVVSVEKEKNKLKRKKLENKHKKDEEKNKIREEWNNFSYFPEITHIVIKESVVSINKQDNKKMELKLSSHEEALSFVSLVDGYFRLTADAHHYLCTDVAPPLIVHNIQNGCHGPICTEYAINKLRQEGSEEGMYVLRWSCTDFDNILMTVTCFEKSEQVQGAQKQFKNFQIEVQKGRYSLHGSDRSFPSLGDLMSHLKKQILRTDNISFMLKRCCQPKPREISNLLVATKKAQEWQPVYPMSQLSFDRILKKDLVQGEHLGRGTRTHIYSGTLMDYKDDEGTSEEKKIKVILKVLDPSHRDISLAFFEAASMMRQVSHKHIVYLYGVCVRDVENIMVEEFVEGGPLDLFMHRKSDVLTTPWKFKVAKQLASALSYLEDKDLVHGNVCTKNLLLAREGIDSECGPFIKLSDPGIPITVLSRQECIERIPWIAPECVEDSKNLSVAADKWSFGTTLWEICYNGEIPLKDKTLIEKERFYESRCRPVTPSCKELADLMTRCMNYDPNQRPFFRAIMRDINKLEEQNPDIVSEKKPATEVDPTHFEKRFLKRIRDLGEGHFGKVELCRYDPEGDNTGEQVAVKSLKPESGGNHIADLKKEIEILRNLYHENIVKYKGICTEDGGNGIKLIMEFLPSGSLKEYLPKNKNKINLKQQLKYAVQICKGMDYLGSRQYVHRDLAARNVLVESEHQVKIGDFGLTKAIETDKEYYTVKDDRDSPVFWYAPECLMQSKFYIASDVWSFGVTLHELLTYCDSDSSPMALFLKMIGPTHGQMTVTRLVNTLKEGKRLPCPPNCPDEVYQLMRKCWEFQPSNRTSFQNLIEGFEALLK

| SMILES | IC50 (JAK1 (h)) [nM] | half-life at 5 μM [2, 4] [h] | CLint scaled at 5 μM ([2]; pH 7.4, Rat liver microsomes) [mL/min/kg] | half-life at 5 μM [3, 5] [h] | CLint scaled at 5 μM ([3]; pH 7.4, Human liver microsomes) [mL/min/kg] | Clearance (CL) after iv dosing [1] [mL/min/kg] | F [1] [%] | AUC(0-t) [1] [ng·h/mL] | half-life [1] [h] | Vd [1] [L/kg] | half-life at 5 μM [2, 6] [h] | CLint scaled at 5 μM [2, 7] [mL/min/kg] | half-life at 5 μM [3, 8] [h] | CLint scaled at 5 μM [3, 9] [mL/min/kg] |
| --- | --- | --- | --- | --- | --- | --- | --- | --- | --- | --- | --- | --- | --- | --- |
| Cc1cnc(Nc2cnn(C)c2)nc1NC1CN(C(=O)CC#N)CC12CCCC2 (stereo not drawn) [Ex. 8, 3-(4-((5-methyl-2-((1-methyl-1H-pyrazol-4-yl)amino)pyrimidin-4-yl)amino)-2-azaspiro[4.4]nonan-2-yl)-3-oxopropanenitrile] | 11 |  |  |  |  | 61.7 | 17.5 | 272 | 0.88 | 2.85 |  |  |  |  |
| Cc1cnc(Nc2cnn(C)c2)nc1N(C)C1CCC2(CC1)CCN(C(=O)CC#N)CC2 [Ex. 23, 3-(9-(methyl(5-methyl-2-((1-methyl-1H-pyrazol-4-yl)amino)pyrimidin-4-yl)amino)-3-azaspiro[5.5]undecan-3-yl)-3-oxopropanenitrile] |  |  |  |  |  |  |  |  |  |  | 0.075 | 552 | 2.09 | 13.9 |
| N#CCC(=O)N1CCC2(CCC(Nc3nc(Nc4cc(C5CC5)[nH]n4)ncc3Cl)CC2)CC1 [Ex. 54, 3-(9-((5-chloro-2-((5-cyclopropyl-1H-pyrazol-3-yl)amino)pyrimidin-4-yl)amino)-3-azaspiro[5.5]undecan-3-yl)-3-oxopropanenitrile] |  |  |  |  |  |  |  |  |  |  | 0.527 | 78.6 | 0.647 | 44.8 |
| Cn1cc(Nc2nccc(NC3CCC4(CC3)CCN(C(=O)CC#N)C4)n2)cn1 (stereo not drawn) [Ex. 6, 3-(8-((2-((1-methyl-1H-pyrazol-4-yl)amino)pyrimidin-4-yl)amino)-2-azaspiro[4.5]decan-2-yl)-3-oxopropanenitrile] | 55 |  |  |  |  |  |  |  |  |  |  |  |  |  |
| CN(c1ccnc(Nc2cnn(C)c2)n1)C1CNCC12CCCC2 (stereo not drawn) [Ex. 1, N^4-methyl-N^2-(1-methyl-1H-pyrazol-4-yl)-N^4-(2-azaspiro[4.4]nonan-4-yl) pyrimidine-2,4-diamine] |  | 4.49 | 9.23 | 3.05 | 9.49 | 157 | 44.39 | 103 | 3.77 | 40.3 |  |  |  |  |
| CN(c1nc(Nc2cnn(C)c2)ncc1Cl)C1CCC2(CCNC2)CC1 (single isomer, unassigned) [Ex. 3.10A, 5-chloro-N^4-methyl-N^2-(1-methyl-1H-pyrazol-4-yl)-N^4-(2-azaspiro[4.5]decan-8-yl)pyrimidine-2,4-diamine] |  |  |  |  |  | 70.2 | 19.06 | 216 | 2.72 | 13.5 | 0.213 | 194 | 5.24 | 5.53 |

Second part, led by results:

| IC50 (JAK1 (h)) [nM] | half-life at 5 μM [2, 4] [h] | CLint scaled at 5 μM ([2]; pH 7.4, Rat liver microsomes) [mL/min/kg] | half-life at 5 μM [3, 5] [h] | CLint scaled at 5 μM ([3]; pH 7.4, Human liver microsomes) [mL/min/kg] | SMILES | Clearance (CL) after iv dosing [1] [mL/min/kg] | F [1] [%] | AUC(0-t) [1] [ng·h/mL] | half-life [1] [h] | Vd [1] [L/kg] | half-life at 5 μM [2, 6] [h] | CLint scaled at 5 μM [2, 7] [mL/min/kg] | half-life at 5 μM [3, 8] [h] | CLint scaled at 5 μM [3, 9] [mL/min/kg] |
| --- | --- | --- | --- | --- | --- | --- | --- | --- | --- | --- | --- | --- | --- | --- |
|  | 0.267 | 155 | 1.14 | 25.4 | COc1cnc(Nc2cc(C3CC3)[nH]n2)nc1NC1CC2CN(C(=O)CC#N)CC2C1 (stereo not drawn) [Ex. 52, 3-(5-((2-((5-cyclopropyl-1H-pyrazol-3-yl)amino)-5-methoxypyrimidin-4-yl)amino)hexahydrocyclopenta[c]pyrrol-2(1H)-yl)-3-oxopropanenitrile] | 84.2 | 16.5 | 197 | 0.32 | 1.6 |  |  |  |  |
| 16 |  |  |  |  | Cc1nn(C)cc1Nc1ncc(Cl)c(NC2CCC3(CC2)CCN(C(=O)CC#N)CC3)n1 [Ex. 57, 3-(9-((5-chloro-2-((1,3-dimethyl-1H-pyrazol-4-yl)amino)pyrimidin-4-yl)amino)-3-azaspiro[5.5]undecan-3-yl)-3-oxopropanenitrile] |  |  |  |  |  |  |  |  |  |
|  | 0.44 | 94.1 | 4.93 | 5.87 | Cn1cc(Nc2ncc(C#N)c(NC3CC4CN(C(=O)CC#N)CC4C3)n2)cn1 (stereo not drawn) [Ex. 67, 4-((2-(2-cyanoacetyl)octahydrocyclopenta[c]pyrrol-5-yl)amino)-2-((1-methyl-1H-pyrazol-4-yl)amino)pyrimidine-5-carbonitrile] |  |  |  |  |  |  |  |  |  |
| 42 |  |  |  |  | CC(=O)N1CC2CC(Nc3nc(Nc4cnn(C)c4)ncc3C)CC2C1 (stereo not drawn) [Ex. 61, 1-(5-((5-methyl-2-((1-methyl-1H-pyrazol-4-yl)amino)pyrimidin-4-yl)amino)hexahydrocyclopenta[c]pyrrol-2(1H)-yl)ethanone] |  |  |  |  |  |  |  |  |  |
|  | 0.385 | 108 | 4.44 | 6.53 | CC(=O)N1CC2CC(Nc3nc(Nc4cc(C5CC5)[nH]n4)ncc3Cl)CC2C1 (stereo not drawn) [Ex. 53, 1-(5-((5-chloro-2-((5-cyclopropyl-1H-pyrazol-3-yl)amino)pyrimidin-4-yl)amino)hexahydrocyclopenta[c]pyrrol-2(1H)-yl)ethanone] | 55.2 | 33.0 | 296 | 1.02 | 2.46 |  |  |  |  |

Source: patent US9403801B2 (Calitor Sciences, LLC, priority 2014, dated 2016)
